According to patent publication US9359341B2, “Aldehyde derivative of substitute oxazolidinones” (WANBURY LTD., priority 2012, dated 2016):

Assays:
CYP2D6 = CYP2D6 (Homo sapiens (Human), UniProt P10635); experiment: CYP inhibition assay; format: in vitro ADME; conditions: pooled human liver microsomes; extrapolated IC50 derived from 3 μM; read-out: IC50 (μM) of CYP isoforms, 2D6
Method: (§1) The ability of substances to inhibit CYP1A2, CYP2C9, CYP2D6, CYP2C19, CYP2J2 and CYP3A4 in humans was investigated with pooled human liver microsomes as enzyme source in the presence of standard substrates (see below) which form CYP-isoform-specific metabolites.
(§2) Standard incubation mixtures comprise NADPH and substrates in 100 mM phosphate buffer (pH 7.4) in a total volume of 200 μl. Test compound are dissolved in acetonitrile. Incubated with pooled human liver microsomes at 37° C. for a defined time. The reactions are stopped by adding 100 μl of acetonitrile in which a suitable internal standard is always present. Precipitated proteins are removed by centrifugation, and the supernatants analyzed by LC-MS/MS. The data represents the extrapolated IC50 (μM) concentration derived from 3 μM.

CYP2C9 = CYP2C9 (Homo sapiens (Human), UniProt P11712); experiment: CYP inhibition assay; format: in vitro ADME; conditions: pooled human liver microsomes; extrapolated IC50 derived from 3 μM; read-out: IC50 (μM) of CYP isoforms, 2C9
Method: as §1, §2

CYP2C19 = CYP2C19 (Homo sapiens (Human), UniProt P33261); experiment: CYP inhibition assay; format: in vitro ADME; conditions: pooled human liver microsomes; extrapolated IC50 derived from 3 μM; read-out: IC50 (μM) of CYP isoforms, 2C19
Method: as §1, §2

CYP2J2 = CYP2J2 (Homo sapiens (Human), UniProt P51589); experiment: CYP inhibition assay; format: in vitro ADME; conditions: pooled human liver microsomes; extrapolated IC50 derived from 3 μM; read-out: IC50 (μM) of CYP isoforms, 2J2
Method: as §1, §2

[1] = Intravenous and oral excretion profile in Wistar rats; format: in vivo
Method: On the day before administration of the substance, a catheter for obtaining blood is implanted in the jugular vein of the experimental animals (male Wistar rats, body weight 200-250 g) under Isoflurane. anesthesia.
Urine and faeces are taken collected from metabolic cages over the course of 144 h after administration of the substance. The administration volume is 10 ml/kg for oral and 1 ml/kg for IV in male Wistar rats. Intravenous administration is via a formulation of 2% N—N Dimethyl acetamide/ethanol 10%/PEG400 (30%)/water for IV injection (58%) and via Tween80/PEG400/sterile water in the case of oral administration. Urine and faeces collection is 0-4, 4-8, 8-24, 24-48, 48-72, 72-96, 96-120, 120-144 in the case of IV and for oral administration.
Urine and faeces was processed and IS containing Acetonitrile is added to a defined urine/faeces and precipitated. After centrifugation, compound formula (B) and, where appropriate, known cleavage products of the compound formula (B) in the supernatant are determined quantitatively using a suitable LC/MS-MS method.
The measured urine and faeces concentrations are used to calculate parameters of the test substance and of the active ingredient compound (A) liberated there from, such as AUC and Cmax.
Acetonitrile containing IS is added to the study samples, calibration samples and QCs, and the protein is precipitated using acetonitrile. Vortexed and centrifuged and the supernatant is injected by LC-MS/MS (API 4000, AB Sciex). Chromatographic separation is carried out on an Shimadzu UFLC. The injection volume is 10 μl. The separation column used is a Phenomenex Gemini NX 4.6×5μ. 100 mm, adjusted to a temperature of 30° C. A binary mobile phase gradient at 800.mu·l/min is used (A: 0.1% formic acid in water, B: acetonitrile: API 4000, ESI Agilent 1100 column: Gemini Nx 100 mm×4.6 mm 5.μ; column temperature: 30° C.; eluent A: 0.1% formic acid in water, eluent B: acetonitrile; gradient: 0-2.5 min 95% A, 5% B; 2.5-2.6 min 5% A, 95% B; 2.6-4.2 min 95% A, 5% B; flow rate: 0.8 ml/min; ESI. Q1:464.098, Q3:144.255 The temperature of the Turbo V ion source is 500° C. The following MS instrument parameters are used: curtain gas 20 units, ion spray voltage 5 kV, gas 1 50 units gas 2 50 units, CAD gas 6 units. The substances are quantified by peak heights or areas using extracted ion chromatograms of specific MRM experiments.

CYP3A4 = CYP3A4 (Homo sapiens (Human), UniProt P08684); experiment: CYP inhibition assay; format: in vitro ADME; conditions: pooled human liver microsomes; extrapolated IC50 derived from 3 μM; read-out: IC50 (μM) of CYP isoforms, 3A4
Method: as §1
as §2, with “LC-MS/MS.” for “LC-MS/MS. The data represents the extrapolated IC50 (μM) concentration derived from 3 μM.”

CYP1A2 = CYP1A2 (Homo sapiens (Human), UniProt P05177); experiment: CYP inhibition assay; format: in vitro ADME; conditions: pooled human liver microsomes; extrapolated IC50 derived from 3 μM; read-out: IC50 (μM) of CYP isoforms, 1A2
Method: as §1
as §2, with “LC-MS/MS.” for “LC-MS/MS. The data represents the extrapolated IC50 (μM) concentration derived from 3 μM.”

Chain of CYP2D6 (P10635 whole entry, canonical isoform): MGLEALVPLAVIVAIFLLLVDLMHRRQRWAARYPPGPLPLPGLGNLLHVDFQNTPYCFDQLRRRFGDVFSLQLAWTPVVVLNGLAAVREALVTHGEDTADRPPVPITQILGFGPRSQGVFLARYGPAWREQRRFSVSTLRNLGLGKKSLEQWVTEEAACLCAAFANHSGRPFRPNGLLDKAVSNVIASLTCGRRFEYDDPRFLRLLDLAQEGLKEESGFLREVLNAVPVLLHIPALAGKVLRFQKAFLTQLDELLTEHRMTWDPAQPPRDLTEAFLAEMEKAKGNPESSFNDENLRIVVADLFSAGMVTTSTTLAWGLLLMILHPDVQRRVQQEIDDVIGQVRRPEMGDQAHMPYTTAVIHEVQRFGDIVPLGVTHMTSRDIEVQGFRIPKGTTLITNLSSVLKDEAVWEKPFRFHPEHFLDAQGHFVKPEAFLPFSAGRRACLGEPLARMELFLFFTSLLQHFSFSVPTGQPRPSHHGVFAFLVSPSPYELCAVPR
Chain of CYP2C9 (P11712 whole entry, canonical isoform): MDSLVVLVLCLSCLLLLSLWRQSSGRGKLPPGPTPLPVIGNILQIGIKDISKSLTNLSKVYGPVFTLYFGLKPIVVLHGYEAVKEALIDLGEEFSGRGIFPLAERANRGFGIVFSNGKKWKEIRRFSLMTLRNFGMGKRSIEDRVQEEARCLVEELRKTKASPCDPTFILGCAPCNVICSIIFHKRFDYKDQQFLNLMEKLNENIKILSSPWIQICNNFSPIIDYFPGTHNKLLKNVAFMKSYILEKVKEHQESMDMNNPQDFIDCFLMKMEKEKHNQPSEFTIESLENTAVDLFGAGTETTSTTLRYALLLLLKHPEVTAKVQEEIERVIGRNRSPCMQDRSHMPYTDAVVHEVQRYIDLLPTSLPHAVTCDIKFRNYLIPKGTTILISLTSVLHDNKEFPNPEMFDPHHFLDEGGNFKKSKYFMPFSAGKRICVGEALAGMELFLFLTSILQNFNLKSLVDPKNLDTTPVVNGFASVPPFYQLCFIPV
Chain of CYP2J2 (P51589 whole entry, canonical isoform): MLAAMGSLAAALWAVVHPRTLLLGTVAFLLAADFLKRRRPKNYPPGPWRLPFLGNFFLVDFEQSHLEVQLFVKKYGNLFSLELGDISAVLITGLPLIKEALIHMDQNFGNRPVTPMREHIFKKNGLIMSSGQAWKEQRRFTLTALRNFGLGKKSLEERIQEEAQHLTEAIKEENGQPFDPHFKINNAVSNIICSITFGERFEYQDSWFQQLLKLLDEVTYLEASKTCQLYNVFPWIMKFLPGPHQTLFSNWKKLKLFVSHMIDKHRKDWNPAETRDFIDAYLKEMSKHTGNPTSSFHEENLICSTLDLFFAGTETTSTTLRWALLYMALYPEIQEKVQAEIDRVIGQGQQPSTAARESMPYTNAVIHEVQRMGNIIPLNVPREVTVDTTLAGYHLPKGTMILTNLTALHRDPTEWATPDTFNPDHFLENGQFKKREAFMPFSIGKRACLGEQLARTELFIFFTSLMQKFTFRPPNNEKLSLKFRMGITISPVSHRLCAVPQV
Chain of CYP1A2 (P05177 whole entry, canonical isoform): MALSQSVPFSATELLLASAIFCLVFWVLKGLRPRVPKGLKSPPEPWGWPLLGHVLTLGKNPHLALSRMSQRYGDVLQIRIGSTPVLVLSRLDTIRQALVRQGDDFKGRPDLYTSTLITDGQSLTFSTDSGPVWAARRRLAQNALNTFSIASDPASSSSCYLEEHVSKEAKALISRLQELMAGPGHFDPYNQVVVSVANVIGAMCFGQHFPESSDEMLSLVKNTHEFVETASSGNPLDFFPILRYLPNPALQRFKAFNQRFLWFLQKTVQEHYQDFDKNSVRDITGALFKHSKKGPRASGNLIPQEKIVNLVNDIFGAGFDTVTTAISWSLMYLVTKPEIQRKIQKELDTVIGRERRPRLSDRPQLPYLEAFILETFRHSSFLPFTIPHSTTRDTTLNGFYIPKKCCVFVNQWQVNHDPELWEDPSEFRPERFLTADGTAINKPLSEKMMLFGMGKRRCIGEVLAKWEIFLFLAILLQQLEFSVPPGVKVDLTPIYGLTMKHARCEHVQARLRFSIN
Chain of CYP3A4 (P08684 whole entry, canonical isoform): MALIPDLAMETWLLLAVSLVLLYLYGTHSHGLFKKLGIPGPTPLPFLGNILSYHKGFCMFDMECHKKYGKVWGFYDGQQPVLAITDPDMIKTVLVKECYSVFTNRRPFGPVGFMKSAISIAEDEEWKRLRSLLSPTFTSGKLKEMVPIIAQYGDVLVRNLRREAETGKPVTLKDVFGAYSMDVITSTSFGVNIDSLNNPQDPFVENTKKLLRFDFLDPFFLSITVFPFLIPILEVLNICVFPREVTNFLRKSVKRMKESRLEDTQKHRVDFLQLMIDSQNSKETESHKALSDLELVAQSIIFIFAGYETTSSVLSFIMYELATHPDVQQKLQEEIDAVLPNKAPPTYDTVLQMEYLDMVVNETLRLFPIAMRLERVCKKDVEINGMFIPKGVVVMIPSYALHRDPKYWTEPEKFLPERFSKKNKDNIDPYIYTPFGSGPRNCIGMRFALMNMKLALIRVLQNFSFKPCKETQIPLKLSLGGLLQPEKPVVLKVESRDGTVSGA
Chain of CYP2C19 (P33261 whole entry, canonical isoform): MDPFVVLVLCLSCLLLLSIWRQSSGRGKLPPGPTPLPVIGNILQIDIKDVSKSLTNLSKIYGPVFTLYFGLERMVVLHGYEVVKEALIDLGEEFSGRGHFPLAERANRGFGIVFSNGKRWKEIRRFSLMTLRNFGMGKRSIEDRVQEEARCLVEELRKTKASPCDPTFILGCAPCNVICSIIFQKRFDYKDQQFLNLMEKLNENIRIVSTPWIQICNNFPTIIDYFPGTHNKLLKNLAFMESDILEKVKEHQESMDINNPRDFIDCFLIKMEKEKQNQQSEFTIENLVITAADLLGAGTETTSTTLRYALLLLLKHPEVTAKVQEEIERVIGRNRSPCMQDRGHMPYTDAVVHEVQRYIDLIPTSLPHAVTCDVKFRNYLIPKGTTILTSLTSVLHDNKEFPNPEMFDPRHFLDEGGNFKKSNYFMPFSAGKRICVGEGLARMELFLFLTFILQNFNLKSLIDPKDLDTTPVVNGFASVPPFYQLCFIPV

IC50 (CYP2D6): 8.2 µM
IC50 (CYP2C9): 22.4 µM
IC50 (CYP2C19): 25.3 µM
IC50 (CYP2J2): 6.7 µM
Mean (ng/G) Faeces ([1]; IV 1 mg/Kg, rivaroxaban in faeces, 144 h): BLQ
Mean (ng) Urine ([1]; IV 1 mg/Kg, rivaroxaban in urine, 120 h): BLQ
detectability of test substance in urine and faeces ([1]; after i.v. administration, at the first measurement point): no longer detectable in urine and faeces
IC50 (CYP3A4): 5.7 µM
IC50 (CYP1A2): 1.4 µM
Compound: O=CN(C[C@H]1CN(c2ccc(N3CCOCC3=O)cc2)C(=O)O1)C(=O)c1ccc(Cl)s1 [Compound formula B, 5-chloro-N-formyl-N-({(5S)-2-oxo-3-[4-(3-oxomorpholin-4-yl)phenyl]-1,3-oxazolidin-5-yl}methyl)thiophene-2-carboxamide]
amount of rivaroxaban present in faeces as compared to rivaroxaban alone ([1]; Wistar rats): lesser amount of rivaroxaban present in faeces
